Laboratory results reported in patent US10011833B2, “Bridged bicyclic nucleosides” (MIRAGEN THERAPEUTICS, INC., priority 2013, dated 2018).
“Also recorded” adds a separate entry of the source.

Assays:
[1] = system: mature human miR-208a; assay: Duplex melting temperature (Tm) of anti-208a oligonucleotides annealed to complementary RNA; assay type: binding; settings: for Tm / ΔTm/mod / ΔTm, DNA / ΔTm, parent: RNA complement; for Tm: duplex 1 μM in 0.9% NaCl, in °C (unit assumed); for ΔTm, DNA: versus fully DNA oligo 10931; for ΔTm, parent: versus parent 10101
Method: The melting temperature (Tm) of modified 16 nucleotide phosphodiester strands were determined and compared to the Tm of identical 16 nucleotide sequences having natural phosphodiester DNA nucleotides. Specifically, the relative aminoCBBN melting temperature (Tm) compared to the 2′-deoxynucleoside or oxoCBBN nucleoside with the same nucleobase was determined on a per incorporation basis by determining the difference between the melting temperature of the amino-modified 16 nucleotide length phosphodiester strand and that of the identical 16 nucleotide sequence utilizing either the 2′-deoxynucleoside or oxoCBBN phosphodiester DNA nucleotide. Tm differences of substitutions were compared only when they were placed in the same position of the sequence.
For example, the modified anti-208a oligonucleotides were annealed to the complementary sequence, twenty-two nucleotides in length, comprised of RNA nucleosides and a phosphate backbone. The complementary sequence was identical to the endogenous mature miRNA. Thermal denaturation temperatures (Tm) were measured as a maximum of the first derivative plot of melting curvex (A260 vs. Temp). The duplexes were constituted at 1 μM in a 0.9% NaCl buffer. Temperature was ramped from 25° C. to 95° C. at 1° C./min and OD's at 260 nm were read once per 30 seconds. Tm values are averages of at least two measurements.
Duplex melting temperatures for various modifications of a 16 nucleotide sequence, complementary to a nucleotide sequence of mature human miR-208a were measured using a Varian Cary 1E UV-Vis Spectrophotometer. Anti-miRNA 208a oligonucleotide sequences tested included a fully DNA phosphodiester (compound M-10931), four DNA phosphodiester oligonucleotides with 1, 2 or 3 aminoCBBN thymidine residues in place of dT residues (compounds M-1915, M-1916, M-1917, and M-11918), mixed 9 LNA/7 DNA phosphorothioate oligonucleotide (compound M-10101), and 2 mixed LNA/DNA/aminoCBBN phosphorothioate oligonucleotides where LNA thymidines of the parent compound, compound M-10101, were replaced with either 1 or 2 aminoCBBN residues (compounds M-11919 and M-11920). Duplexes were constituted at 1 μM in 0.9% NaCl. Temperature was ramped from 25° C. to 95° C. at 1° C./min and OD's at 260 nm were read once per 30 seconds.

[2] = system: RNA Complement; settings: 9mer, phosphate backbone, cited from earlier work; for Tm: RNA complement, literature values
[3] = system: miR-208a; assay: Dual-luciferase reporter assay in HeLa cell line stably expressing miR-208a; assay type: cell-based; settings: HeLa cells expressing miR-208a, 24 hours at 37° C., FIG. 6
Method: A HeLa cell line stably expressing miR-208a was generated. Specifically, a miRNA expression vector (Cell BioLabs, Inc.) expressing miR-208a was transfected into HeLa cells. Cells were then selected using a puromycin selection screen and clones which had detectable miR-208a expression as measured by qPCR were isolated (Ct value=˜30).
The cells were plated in a black-walled 96 well plate with 10,000 cells per well. After twenty-four hours following plating, the cells were transfected with a dual-luciferase plasmid containing the miR-208a binding site in the 3′ UTR of the renilla gene and various miR-208a inhibitors (compounds M-11919, M-11920, and M-10101). Compound M-10591 was a non-targeting control. The cells were incubated for 24 hours at 37° C. and then both firefly (as a transfection normalization) and renilla levels were measured by luminescence using the Dual-Luciferase Reporter Assay System (Promega). Data was normalized to cells treated with only the miR-208a dual luciferase plasmid (psi check 208a).

[4] = PS backbone, per modification versus parent 10101

“ICs;dTs;dTs;dTs;ITs;ITs;dGs;ICs;dTs;ICs;IGs;dTs;ICs;dTs;ITs;IA [Oligo 10101, reference compound]” showed a Tm ([1]; PS backbone, 10101-like) of 86.7.
For “bC.bT.bT.bT.bT.bT.dG.bC.bT.bC.dG.bT.bC.bT.bT. dA [Oligo 10924, reference compound]”, the Tm ([1]; phosphate backbone) was 89.8, the ΔTm/mod ([1]; phosphate backbone, per modification versus DNA) was 2.8 ° C./modification and the ΔTm, DNA ([1]; phosphate backbone) was 36.7 °C.
With “dC;dT;dT;dT;dT;dT;dG;dC;dT;dC;dG;dT;dC;dT;dT;dA (antisense CTTTTTGCTCGTCTTA; DNA, backbone not given here) [Oligo 10931, reference compound]” the Tm ([1]; phosphate backbone) was 53.1 and the ΔTm, DNA ([1]; phosphate backbone) was 0 °C.
In the case of “dG;IT;dG;dA;IT;dA;IT;dG;dC [DNA_9mer_PO_3LNA-T]”, the Tm [2] is given as 50 °C.
For “dG;aIT;dG;dA;aIT;dA;aIT;dG;dC [DNA_9mer_PO_3aminoLNA-T]”, the Tm [2] is listed as 47 °C and the ΔTm/mod ([2]; versus 3LNA-T parent, literature) is listed as -1 ° C./modification.
With “lCs.dTs.dTs.dTs.abTs.abTs.dGs.lCs.dTs.lCs.lGs.dTs. lCs.dTs.lTs.lA [Oligo 11919]” the “affinity for the miR-208a RNA (Tm data), in words” value ([1]; PS backbone oligonucleotides) was “less affinity for the miR-208a RNA than the M-11920 compound”, the Tm ([1]; PS backbone, 10101-like) was 80.04 and the ΔTm/mod [1, 4] was -6.66 ° C./modification. For the same substance, the “ΔTm, parent” value ([1]; PS backbone) was -6.66 and the “miR208a inhibition activity (dual-luciferase reporter), in words” value [3] was “slightly less activity compared to the other two inhibitors”.
In the case of “lCs.dTs.dTs.dTs.lTs.lTs.dGs.lCs.dTs.lCs.lGs.dTs.lCs. dTs.abTs.lA [Oligo 11920]”, the Tm ([1]; PS backbone, 10101-like) was 85.125, the ΔTm/mod [1, 4] was -0.7875 ° C./modification and the “ΔTm, parent” value ([1]; PS backbone) was -1.575. For the same substance, the “miR208a inhibition activity (dual-luciferase reporter), in words” value ([3]; listed as M-11920) was “comparable activity as compound M-10101; also recorded: retains all activity of the optimized M-10101 compound”.
